The target in one assay is Thymidylate synthase (Mus musculus, UniProt P07607). Description: In vitro inhibitory activity against thymidylate synthase partially purified from L1210 mouse leukemia cells. Format: cell-based.
In the next assay the test system is L1210. Nature of the assay: In vitro inhibitory activity against L1210 cell growth. It counts as functional, cell-based. To be noted: Mus musculus.
Assay [1] can be described thus: Relative resistant ratio of compound as L1210:1565 IC50 over L1210 IC50. It counts as functional.

Sequence of Thymidylate synthase (P07607 whole entry): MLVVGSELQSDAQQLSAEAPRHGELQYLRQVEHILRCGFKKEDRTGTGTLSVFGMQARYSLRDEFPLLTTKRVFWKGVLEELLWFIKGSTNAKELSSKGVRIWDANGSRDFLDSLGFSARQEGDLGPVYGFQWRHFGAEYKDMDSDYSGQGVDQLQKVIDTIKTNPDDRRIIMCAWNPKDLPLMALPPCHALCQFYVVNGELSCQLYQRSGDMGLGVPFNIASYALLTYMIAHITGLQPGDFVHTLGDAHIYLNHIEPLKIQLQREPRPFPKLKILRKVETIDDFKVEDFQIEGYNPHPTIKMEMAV

Turning to `C#CCN(Cc1cc2c(=O)[nH]c(CSc3ncccn3)nc2cc1C)c1ccc(C(=O)NCc2cccc([N+](=O)[O-])c2)c(F)c1`, at Thymidylate synthase, the half-inhibitory concentration (IC50) stood at 110 nM.

Consider `C#CCN(Cc1ccc2nc(CSc3nccc(O)n3)nc(O)c2c1)c1ccc(C(=O)NCc2cccc([N+](=O)[O-])c2)cc1`, for which the results for the IC50 at Thymidylate synthase and in the assay on L1210 were 3300 nM and 12000 nM, respectively.

As to `C#CCN(Cc1ccc2nc(CN3CCN(C)CC3)nc(O)c2c1)c1ccc(C(=O)NCc2cccc([N+](=O)[O-])c2)cc1`, the results for the IC50 against Thymidylate synthase and in the assay with L1210 were 900 nM and 5300 nM, respectively.

Take `C#CCN(Cc1ccc2nc(CCl)nc(O)c2c1)c1ccc(C(=O)NCc2cccc([N+](=O)[O-])c2)cc1`: the IC50 amounted to 1210 nM against Thymidylate synthase and 2400 nM in the assay on L1210.

For `Cc1cc2nc(CN(C)C)nc(O)c2cc1CN(C)c1ccc(C(=O)NCc2cccc([N+](=O)[O-])c2)c(F)c1`, the values for the IC50 at Thymidylate synthase and with L1210 were 84 nM and 580 nM, respectively.

On to `C#CCN(Cc1cc2c(O)nc(CN(CCO)CCO)nc2cc1C)c1ccc(C(=O)NCc2cccc([N+](=O)[O-])c2)c(F)c1`, for which the results for the IC50 on Thymidylate synthase and in the assay with L1210 were 160 nM and 7800 nM, respectively.

Regarding `C#CCN(Cc1ccc2nc(CNC)nc(O)c2c1)c1ccc(C(=O)NCc2cccc([N+](=O)[O-])c2)cc1`, the results for the half-inhibitory concentration (IC50) on Thymidylate synthase and in the assay with L1210 were 4200 nM and 7800 nM, respectively.

Turning to `C#CCN(Cc1cc2c(O)nc(C)nc2cc1C)c1ccc(C(=O)NCc2cccc([N+](=O)[O-])c2)c(F)c1`, the Ratio in assay [1] stood at 1. This compound returned an IC50 with L1210 of 260 nM.

As for `C#CCN(Cc1cc2c(O)nc(CO)nc2cc1C)c1ccc(C(=O)NCc2cccc([N+](=O)[O-])c2)c(F)c1`, the results for the half-maximal inhibitory concentration (IC50) against Thymidylate synthase and in the assay on L1210 were 72 nM and 700 nM, respectively. Besides, in assay [1], the Ratio amounted to 0.17.

In the case of `C#CCN(Cc1ccc2nc(CO)nc(O)c2c1)c1ccc(C(=O)NCc2cccc([N+](=O)[O-])c2)cc1`, the IC50 was determined as 300 nM on Thymidylate synthase and 4800 nM in the assay with L1210.

With `C#CCN(Cc1cc2c(O)nc(CN(C)C)nc2cc1C)c1ccc(C(=O)NCc2cccc([N+](=O)[O-])c2)c(F)c1`, the Ratio in assay [1] was 0.76. The compound also showed an IC50 with L1210 of 680 nM.

In the case of `Cc1cc2nc(CN3CCN(C)CC3)nc(O)c2cc1CN(C)c1ccc(C(=O)NC(CCC(=O)O)C(=O)O)c(F)c1` (configuration not stated), the 50% inhibitory concentration (IC50) against Thymidylate synthase was 28 nM; in the assay with L1210 it was more than 20000 nM.

In the case of `C#CCN(Cc1ccc2nc(C)nc(O)c2c1)c1ccc(C(=O)NC(Cc2cccc([N+](=O)[O-])c2)C(=O)O)cc1` (configuration not stated), the IC50 on Thymidylate synthase was 10 nM; with L1210 it was 9000 nM.

Compound `C#CCN(Cc1ccc2nc(CSc3ncccn3)nc(O)c2c1)c1ccc(C(=O)NC(CCC(=O)O)C(=O)O)cc1` (configuration not stated) displayed a concentration for half-maximal inhibition (IC50) with L1210 of 100000 nM.

On to `C#CCN(Cc1cc2c(O)nc(CN3CCN(C)CC3)nc2cc1C)c1ccc(C(=O)NCc2cccc([N+](=O)[O-])c2)c(F)c1`, for which the values for the 50% inhibitory concentration (IC50) against Thymidylate synthase and in the assay with L1210 were 110 nM and 580 nM, respectively. The Ratio in assay [1] stood at 1.1.

In the case of `C#CCN(Cc1ccc2nc(C)nc(O)c2c1)c1ccc(C(=O)NCc2cccc([N+](=O)[O-])c2)cc1`, the Ratio in assay [1] worked out at 0.3. Besides, the IC50 in the assay with L1210 is 1400 nM.

On to `C#CCN(Cc1cc2c(O)nc(CSc3ncccn3)nc2cc1C)c1ccc(C(=O)NCc2cccc([N+](=O)[O-])c2)c(F)c1`, for which the Ratio in assay [1] was found to be 0.65. The compound also displayed an IC50 with L1210 of 640 nM.

Consider `C#CCN(Cc1ccc2nc(CN)nc(O)c2c1)c1ccc(C(=O)NCc2cccc([N+](=O)[O-])c2)cc1`, for which the figures for the IC50 at Thymidylate synthase and in the assay on L1210 were more than 1700 nM and more than 20000 nM, respectively.

For the compound `C#CCN(Cc1ccc2nc(CC#N)nc(O)c2c1)c1ccc(C(=O)NCc2cccc([N+](=O)[O-])c2)cc1`, the results for the IC50 on Thymidylate synthase and in the assay with L1210 were 380 nM and 11000 nM, respectively.

In the case of `C#CCN(Cc1ccc2nc(CSc3nc(N)cc(O)n3)nc(O)c2c1)c1ccc(C(=O)NCc2cccc([N+](=O)[O-])c2)cc1`, the 50% inhibitory concentration (IC50) amounted to 1040 nM on Thymidylate synthase and 14000 nM with L1210.

As for `C#CCN(Cc1ccc2nc(COCCOC)nc(O)c2c1)c1ccc(C(=O)NCc2cccc([N+](=O)[O-])c2)cc1`, the 50% inhibitory concentration (IC50) against Thymidylate synthase stood at 640 nM; with L1210, 6700 nM.

For the compound `C#CCN(Cc1ccc2nc(CN(C)CCN(C)C)nc(O)c2c1)c1ccc(C(=O)NCc2cccc([N+](=O)[O-])c2)cc1`, the IC50 came to 820 nM against Thymidylate synthase and 5000 nM with L1210.

With `C#CCN(Cc1cc2c(O)nc(CN3CCOCC3)nc2cc1C)c1ccc(C(=O)NCc2cccc([N+](=O)[O-])c2)c(F)c1`, the IC50 against Thymidylate synthase came out at 100 nM; in the assay with L1210, 340 nM. Also, the Ratio in assay [1] stood at 1.1.

`C#CCN(Cc1ccc2nc(C)nc(O)c2c1)c1ccc(C(=O)NC(CCC(=O)O)C(=O)O)cc1` (configuration not stated) returned an IC50 in the assay with L1210 of 150 nM. That is a sub-micromolar value.

Compound `C#CCN(Cc1cc2c(=O)[nH]c(CN(C)C)nc2cc1C)c1ccc(C(=O)NCc2cccc([N+](=O)[O-])c2)c(F)c1` returned an IC50 at Thymidylate synthase of 140 nM.

Turning to `C#CCN(Cc1ccc2nc(CN3CCOCC3)nc(O)c2c1)c1ccc(C(=O)NCc2cccc([N+](=O)[O-])c2)cc1`, the values for the IC50 at Thymidylate synthase and with L1210 were 380 nM and 1900 nM, respectively.

As for `C#CCN(Cc1ccc2nc(CNS(C)(=O)=O)nc(O)c2c1)c1ccc(C(=O)NCc2cccc([N+](=O)[O-])c2)cc1`, the IC50 was 180 nM against Thymidylate synthase and more than 20000 nM with L1210.

As for `Cc1nc2cc(C)c(CN(C)c3ccc(C(=O)NCc4cccc([N+](=O)[O-])c4)c(F)c3)cc2c(=O)[nH]1`, the figures for the IC50 against Thymidylate synthase and with L1210 were 56 nM and 76 nM, respectively.

For the compound `C#CCN(Cc1cc2c(O)nc(CN(C)CCN(C)C)nc2cc1C)c1ccc(C(=O)NCc2cccc([N+](=O)[O-])c2)c(F)c1`, the IC50 against Thymidylate synthase was 200 nM; in the assay with L1210, 950 nM.

For `C#CCN(Cc1ccc2nc(CSc3ncccn3)nc(O)c2c1)c1ccc(C(=O)NCc2cccc([N+](=O)[O-])c2)cc1`, the results for the IC50 against Thymidylate synthase and with L1210 were 480 nM and 2000 nM, respectively.

Take `Cc1cc2nc(CO)nc(O)c2cc1CN(C)c1ccc(C(=O)NCc2cccc([N+](=O)[O-])c2)c(F)c1`: the IC50 came out at 80 nM against Thymidylate synthase and 700 nM in the assay with L1210.

Regarding `C#CCN(Cc1ccc2nc(CSc3nccc(N)n3)nc(O)c2c1)c1ccc(C(=O)NCc2cccc([N+](=O)[O-])c2)cc1`, the half-maximal inhibitory concentration (IC50) against Thymidylate synthase turned out to be 840 nM; in the assay with L1210, 2200 nM.

As for `C#CCN(Cc1ccc2nc(CN(C)C)nc(O)c2c1)c1ccc(C(=O)NCc2cccc([N+](=O)[O-])c2)cc1`, the figures for the half-maximal inhibitory concentration (IC50) at Thymidylate synthase and with L1210 were 620 nM and 2700 nM, respectively.

As for `C#CCN(Cc1ccc2nc(CN3CCC(O)C3)nc(O)c2c1)c1ccc(C(=O)NCc2cccc([N+](=O)[O-])c2)cc1` (configuration not stated), the results for the concentration for half-maximal inhibition (IC50) on Thymidylate synthase and in the assay on L1210 were 600 nM and 9000 nM, respectively.

These data come from ChEMBL document CHEMBL1129474, “Quinazoline antifolates thymidylate synthase inhibitors: lipophilic analogues with modification to the C2-methyl substituent” (J Med Chem, 1996).
